Here are results for three substances from PMC8829087 (The Journal of Biological Chemistry, 2021).

For test [1], the system named is GLP-1R G168^1.63S. The note with it: cited from earlier work. From the text:
(§1) Previous in vivo characterizations of missense variants in the GLP-1R and GIPR have pointed to associations between receptor impairments and clinical phenotypes. One example is the more frequently occurring variant of GIPR E354^6.53Q (gnomAD MAF: 0.2). […] Heterozygous carriers of the rare missense variant T14 ...

Test [2] concerns GLP-1R T149^1.44M. The note with it: cited from earlier work.
Description: as §1

The test system of test [3] is GLP-1R variants P7^ECDL, R44^ECDH and L260^ICL2P. The note with it: cited from earlier work.
Description: as §1

The test system of test [4] is patients with type 2 diabetes, GLP-1R G168^1.63S carriers. The note with it: cited from earlier work.
Description: as §1

For test [5], the target named is human glucagon receptor missense variant R225^3.30H (human) (UniProt P47871).
UniProt P47871, sequence (P47871 other isoform, or with tags, fused parts or gaps mutant): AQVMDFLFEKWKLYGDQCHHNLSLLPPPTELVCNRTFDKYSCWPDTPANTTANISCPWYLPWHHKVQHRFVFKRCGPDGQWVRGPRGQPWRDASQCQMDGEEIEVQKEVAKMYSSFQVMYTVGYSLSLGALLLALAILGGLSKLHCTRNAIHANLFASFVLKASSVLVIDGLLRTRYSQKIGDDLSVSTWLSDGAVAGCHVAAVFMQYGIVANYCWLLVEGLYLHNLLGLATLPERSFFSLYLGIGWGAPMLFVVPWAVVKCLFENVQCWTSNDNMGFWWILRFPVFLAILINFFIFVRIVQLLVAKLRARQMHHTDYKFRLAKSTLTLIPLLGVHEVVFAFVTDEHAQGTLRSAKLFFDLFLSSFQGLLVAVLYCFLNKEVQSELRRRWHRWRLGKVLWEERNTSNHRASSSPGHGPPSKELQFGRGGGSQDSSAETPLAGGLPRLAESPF

As for glucagon-like peptide-1 [GLP-1], in test [1], the “receptor signaling and binding affinity of GLP-1” value was “preserved receptor signaling and binding affinity”. Moreover, in test [2], the “binding capacity of GLP-1” value is reported as “lower binding capacity” and the receptor signaling result is listed as “impaired receptor signaling capabilities”. Further, in test [3], the “GLP-1 binding and receptor signaling” value was “wildtype-like GLP-1 binding and receptor signaling”.

On to “liraglutide: treatment with liraglutide of patients with type 2 diabetes (HAEGTFTSDVSSYLEGQAAKEFIAWLVRGRG; chains of the INN, looked up)”, for which the “weight loss and fat mass” value in test [4] is “improved weight loss and lower fat mass”.

The substance “β-arrestin-2 (Rluc8-Arr3-Sp2) (from UniProt P32121 1-409) (natural protein)” came in with a potency (EC50) of glucagon in β-arrestin-2 recruitment, BRET in HEK293, fold decrease against wildtype in test [5] of 6 fold.
